Laboratory results taken from patent US12325726B2, “Organic compounds” (priority 2018, dated 2025).
Read-outs that look alike come from different tables or passages of the source.

Key:
[1] = In vivo mouse pharmacokinetics, paired oral co-dosing, plasma and brain; parameters: species or system mice; details: for Cmax / Tmax / AUC / concentration at 0.25 hr / concentration at 0.5 hr / concentration at 1 hr / concentration at 2 hr / concentration at 4 hr / concentration at 6 hr / Kp: 10 mg/kg po co-dosed; for AUC: 0.25-6 hr sampling; for Kp: brain/plasma, read-out: B/P AUC Ratio
Procedure: In a first study, the compounds of Examples 2 to 6 are compared to the Compound of Formula A (Example 1) using standard procedures in mice. In each test, two compounds are co-dosed in a single animal and the relative pharmacokinetics in plasma and brain is determined. Each test compound is dissolved in polyethylene glycol 400 vehicle, and administered orally at a dose of 10 mg/kg. After single dose oral administration of the test compounds together, plasma and brain levels are measured at 0.25, 0.5, 1, 2, 4, and 6 hours post-dosing. The mean values for maximum concentration, time to maximum concentration, and Area Under the Curve (AUC) for both compounds are determined. The results are summarized in the tables below for various paired co-dosing experiments: […]

human hepatocyte = test: In vitro human hepatocyte stability assay; format: in vitro ADME; details: human hepatocytes
Procedure: The compounds of Examples 1, 2, 5 and 6 are compared in a standard in vitro human hepatocyte stability assay run in duplicate. Compounds are provided as 1 M solutions in DMSO, and concentration of test compound is determined at 0.5, 1.0 and 4.0 hours after addition of the test compound. Results are shown below as a percentage of initial concentration.

[2] = brain, read-out: Brain concentration
[3] = plasma, read-out: Plasma concentration

Row | Compound | Cmax ([1]; brain) | Tmax ([1]; brain) | AUC ([1]; brain) | concentration at 0.25 hr [1, 2] | concentration at 0.5 hr [1, 2] | concentration at 1 hr [1, 2] | concentration at 2 hr [1, 2] | concentration at 4 hr [1, 2] | concentration at 6 hr [1, 2] | Kp [1] | Cmax ([1]; plasma) | Tmax ([1]; plasma) | AUC ([1]; plasma) | concentration at 0.25 hr [1, 3] | concentration at 0.5 hr [1, 3] | concentration at 1 hr [1, 3] | concentration at 2 hr [1, 3] | concentration at 4 hr [1, 3] | concentration at 6 hr [1, 3] | brain exposure of drug compared to the non-deuterated compound of Example 1 ([1]; 10 mg/kg po) | further results
1 | [2H]C([2H])([2H])OC[C@@]1(O)CC[C@@]2(C)[C@@H](CC[C@@H]3[C@@H]2CC[C@]2(C)[C@@H](C(=O)Cn4ccnc4)CC[C@@H]32)C1 [Example 3, 1-((3R,5S,8R,9S,10S,13S,14S,17S)-3-hydroxy-3-((methoxy-d3)methyl)-10,13-dimethylhexadecahydro-1H-cyclopenta[a]phenanthren-17-yl)-2-(1H-imidazol-1-yl)ethan-1-one] | 2620 ng/g | 1 h | 13200 ng·h/mL | 2200 ng/g | 2000 ng/g | 2620 ng/g | 2370 ng/g | 2200 ng/g | 1980 ng/g | 1.2 | 2420 ng/mL | 1 h | 11300 ng·h/mL | 2170 ng/mL | 1570 ng/mL | 2420 ng/mL | 2020 ng/mL | 1810 ng/mL | 1720 ng/mL | – | plasma and brain AUC values and B/P ratio compared to Example 1 ([1]; 10 mg/kg po): similar
2 | [2H]c1nc([2H])n(CC(=O)[C@H]2CC[C@H]3[C@@H]4CC[C@H]5C[C@@](O)(COC)CC[C@]5(C)[C@H]4CC[C@]23C)c1[2H] [Example 2, 1-((3R,5S,8R,9S,10S,13S,14S,17S)-3-hydroxy-3-(methoxymethyl)-10,13-dimethylhexadecahydro-1H-cyclopenta[a]phenanthren-17-yl)-2-(1H-imidazol-1-yl-d3)ethan-1-one] | 7600 ng/g | 1 h | 29000 ng·h/mL | 1840 ng/g | 5590 ng/g | 7600 ng/g | 6340 ng/g | 4890 ng/g | 1410 ng/g | 2.8 | 2550 ng/mL | 1 h | 10300 ng·h/mL | 1180 ng/mL | 1740 ng/mL | 2550 ng/mL | 2120 ng/mL | 1760 ng/mL | 774 ng/mL | much higher | brain/plasma AUC ratio compared to Example 1 ([1]; 10 mg/kg po): much higher; percentage of initial concentration (human hepatocyte; 0 hr): 100%; percentage of initial concentration (human hepatocyte; 0.5 hr): 105%; percentage of initial concentration (human hepatocyte; 1.0 hr): 107%; percentage of initial concentration (human hepatocyte; 4.0 hr): 92%
3 | [2H]c1nc([2H])n(C([2H])C(=O)[C@@]2([2H])CC[C@H]3[C@@H]4CC[C@H]5C[C@@](O)(COC([2H])([2H])[2H])CC[C@]5(C)[C@H]4CC[C@@]32C)c1[2H] (stereo partly drawn) [Example 6, 1-((3R,5S,8R,9S,10S,13S,14S,17S)-3-hydroxy-3-((methoxy-d3)methyl)-10,13-dimethylhexadecahydro-1H-cyclopenta[a]phenanthren-17-yl-17-d)-2-(1H-imidazol-1-yl-d3)ethan-1-one-2-d] | 5350 ng/g | 1 h | 22400 ng·h/mL | 3300 ng/g | 5350 ng/g | 5300 ng/g | 4880 ng/g | 3060 ng/g | 2110 ng/g | 2.7 | 2120 ng/mL | 1 h | 8200 ng·h/mL | 1410 ng/mL | 1850 ng/mL | 2120 ng/mL | 1650 ng/mL | 1220 ng/mL | 642 ng/mL | much higher | brain/plasma AUC ratio compared to Example 1 ([1]; 10 mg/kg po): much higher; percentage of initial concentration (human hepatocyte; 0 hr): 100%; percentage of initial concentration (human hepatocyte; 0.5 hr): 83%; percentage of initial concentration (human hepatocyte; 1.0 hr): 69%; percentage of initial concentration (human hepatocyte; 4.0 hr): 45%
4 | [2H]C(C(=O)[C@@]1([2H])CC[C@H]2[C@@H]3CC[C@H]4C[C@@](O)(COC([2H])([2H])[2H])CC[C@]4(C)[C@H]3CC[C@@]21C)n1ccnc1 (stereo partly drawn) [Example 5, 1-((3R,5S,8R,9S,10S,13S,14S,17S)-3-hydroxy-3-((methoxy-d3)methyl)-10,13-dimethylhexadecahydro-1H-cyclopenta[a]phenanthren-17-yl-17-d)-2-(1H-imidazol-1-yl)ethan-1-one-2-d] | 5700 ng/g | 1 h | 23500 ng·h/mL | 3450 ng/g | 5540 ng/g | 5700 ng/g | 5100 ng/g | 3180 ng/g | 2240 ng/g | 2.6 | 2300 ng/mL | 1 h | 8900 ng·h/mL | 1490 ng/mL | 1960 ng/mL | 2300 ng/mL | 1770 ng/mL | 1340 ng/mL | 725 ng/mL | – | percentage of initial concentration (human hepatocyte; 0 hr): 100%; percentage of initial concentration (human hepatocyte; 0.5 hr): 83%; percentage of initial concentration (human hepatocyte; 1.0 hr): 80%; percentage of initial concentration (human hepatocyte; 4.0 hr): 52%
5 | [2H]c1nc([2H])n(CC(=O)[C@H]2CC[C@H]3[C@@H]4CC[C@H]5C[C@@](O)(COC([2H])([2H])[2H])CC[C@]5(C)[C@H]4CC[C@]23C)c1[2H] [Example 4, 1-((3R,5S,8R,9S,10S,13S,14S,17S)-3-hydroxy-3-((methoxy-d3)methyl)-10,13-dimethylhexadecahydro-1H-cyclopenta[a]phenanthren-17-yl)-2-(1H-imidazol-1-yl-d3)ethan-1-one] | 6530 ng/g | 1 h | 25000 ng·h/mL | 1710 ng/g | 5070 ng/g | 6530 ng/g | 5480 ng/g | 4200 ng/g | 1180 ng/g | 2.7 | 2520 ng/mL | 1 h | 9220 ng·h/mL | 896 ng/mL | 1490 ng/mL | 2520 ng/mL | 1950 ng/mL | 1600 ng/mL | 423 ng/mL | much higher | brain/plasma AUC ratio compared to Example 1 ([1]; 10 mg/kg po): much higher
